Earlier results on 1 compound are cited in patent publication US6746697B2, “Composition containing Heliopsis longipes root extract and oral carrier” (Phytos, Inc., priority 2000, dated 2004).

One series concerns mice. As to conditions: orally to mice.
The test system of series [1] is certain microorganisms (Gram positive and Gram negative bacteria). As to conditions: purified affinin from ethanol extract; toxicity varying for Gram positive and Gram negative bacteria.

As for `C/C=C/C=C\CC/C=C/C(=O)NCC(C)C` [affinin, N-isobutyl-2E, 6Z, 8E-decatrienamide], the analgesic effect entry in the series with mice (aqueous solution, doses from 2.5 to 10.0 mg/kg) is reported as “analgesic effect”. For the same compound, in the series with mice (highest dose (10.0 mg/kg)), the deaths result is given as “two out of five deaths” and the “effect on normal motor activity” value is recorded as “severe depression of normal motor activity”. Besides, the toxicity to microorganisms result in series [1] is listed as “toxic to certain microorganisms”.
